Laboratory results from PubChem BioAssay AID1963846 (Molecular Pharmacology Branch, DTP, NCI, 2024).
Values joined by “and” are separate entries in the source; they are usually repeats but may differ in a detail not shown here. Equal values may be shown once.

Test system: 454973-116-R2-J3-PDC complex spheroid viability
Assay: Anticancer human tumor 454973-116-R2-J3-PDC patient-derived pancreatic carcinoma cell line growth inhibition [POLQ]
Settings: for viability, T/C: stronger effect = lower value
Protocol: Multicellular complex tumor spheroid response to Polymerase (POL) inhibitors (novobiocin, ART-558, RP6685) in combination with a variety of drugs and investigational agents in selected tumor cell lines
The POL inhibitors (novobiocin, ART-558, and RP6685) were evaluated both individually and in combination with standard of care and investigational anticancer small molecules within a complex spheroid model of solid tumors. . Complex spheroids include a stromal component modeled by human endothelial cells (HUVEC) and fibroblasts modeled by human mesenchymal stem cells (MSCs). The concentration ranges selected for each drug and investigational agent were based upon clinically achievable concentrations if the clinical Cmax of the agent was known.
Compounds. The drugs and investigational agents: novobiocin (NSC847541), ART-558 (NSC835418), RP-6685 (NSC848927), peposertib (NSC802822), ceralasertib (NSC780249), elimusertib (NSC800525), camonsertib (NSC841442), AZD-1390 (NSC803789), olaparib (NSC753686), talazoparib (NSC767125), rucaparib (NSC756644), sotorasib (NSC818433), MRTX-1133 (NSC836407), SN-38 (NSC673596), topotecan (NSC609699), epotoside (NSC141540), doxorubicin (NSC123127), gemcitabine (NSC613327), 5-fluorouracil (NSC19893), paclitaxel (NSC125973), vemurafenib (NSC761431), MSA-2 (NSC828583), SN-011 (NSC837082), adavosertib (NSC754352), prexasertib (NSC758257), carboplatin (NSC241240) and oxaliplatin (NSC266046), were obtained from the National Cancer Institute (NCI) Developmental Therapeutics Program Chemical Repository (21). The FDA-approved anticancer drug set is available from the Developmental Therapeutics Program at https://dtp.cancer.gov/organization/dscb/obtaining/. […] The stock solutions were prepared in dimethyl sulfoxide (DMSO, Sigma-Aldrich, St. Louis, MO, cat. D2650), except for the platinum compounds which were prepared in saline (Quality Biological, Gaithersburg, MD, cat. 114-055-101), at 800-fold the tested concentration and stored at -70 degrees C prior to their use. All drugs and investigational agents were tested over a range starting from a high concentration at or near the clinical Cmax and decreasing in half-log increments. If the clinical Cmax for an agent had not been determined, the highest concentration tested was 10 microM, except for SN-38, which was tested at a high concentration of 1 microM.
Cell Culture. All cells were maintained in an incubator at 37 degrees C and 5% CO2 with 95% humidity. The PDC lines were cultured according to standard operating procedures established by the NCI PDMR (https://pdmr.cancer.gov). Table 3 of the manuscript, lists the cell lines along with the number of the three cell types plated to form the mct-spheroids and media for tumor cell growth. After thawing, all PDC lines, except 997537-175-T-J1-PDC and 415267-285-R-J2-PDC, were cultured in Matrigel-coated flasks prepared with a working solution of 1X Ham's F-12 nutrient mix, without supplementation (Thermo Fisher Scientific, cat. 11765054), 100 U/mL penicillin-streptomycin (Thermo Fisher Scientific, cat. 15140122), and 2.5% Matrigel (Corning Inc., Corning, NY, cat. 354248) for the first three passages. The two PDC lines 997537-175-T-J1-PDC and 415267-285-R-J2-PDC were cultured on uncoated flasks. The 857933-349-R-J2-PDC line was cultured in 6C/Colon 1B media containing advanced DMEM/F-12 (Thermo Fisher Scientific, cat. 12634028), 10 mM HEPES (Thermo Fisher Scientific, cat. 15630080), 1X GlutaMAX supplement (Thermo Fisher Scientific, cat. 35050061), 0.1 mg/mL primocin (InvivoGen, San Diego, CA, cat. ant-pm-2), 10% defined fetal bovine serum, heat inactivated (HyClone Laboratories Inc., Logan, UT, cat. SH30070.03HI), 50% L-WRN conditioned media (ATCC, cat. CRL-3276), 1.25 mM N-Acetyl-L-cysteine (Sigma-Aldrich, cat. A9165), 10 mM nicotinamide (Sigma-Aldrich, cat. N0636), 1X B-27 supplement (Thermo Fisher Scientific, cat. 17504044), 1X N-2 supplement (Thermo Fisher Scientific, cat. […]
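Further: spheroids exposed to drugs for seven days before measurement.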
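Wherever viability, T/C is given: percent viability relative to DMSO vehicle control wells taken as 100%.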

For `O=C(c1cc(Cc2n[nH]c(=O)c3ccccc23)ccc1F)N1CCN(C(=O)C2CC2)CC1`, which viability, T/C (compound 0.0316 µM) is on record?
The viability, T/C was 105% and 99.8% and 97.1%.

What about the viability, T/C (compound 0.1 µM) of the same compound?
The viability, T/C was 96.5% and 99% and 104%.

And the viability, T/C (compound 0.316 µM)?
Its viability, T/C is 101%.

What about the viability, T/C (compound 1 µM) of the same compound?
The viability, T/C was 91.2% and 104% and 90.5%.

And the viability, T/C (compound 3.16 µM)?
Its viability, T/C is 104% and 102% and 95.3%.

What about the viability, T/C (compound 10 µM) of the same compound?
The viability, T/C was 60.6% and 62.5% and 54.9%.

What about the IC50 (curve of compound) of the same compound?
Its IC50 is > 10 µM.

`CCCS(=O)(=O)Nc1ccc(F)c(C(=O)c2c[nH]c3ncc(-c4ccc(Cl)cc4)cc23)c1F` was tested. Which viability, T/C (compound 0.0316 µM) did it give?
The viability, T/C was 111% and 107% and 105%.

What about the viability, T/C (compound 0.1 µM) of the same compound?
The viability, T/C was 107% (2×) and 110%.

What about the viability, T/C (compound 0.316 µM) of the same compound?
The viability, T/C was 108% (2×) and 115%.

And the viability, T/C (compound 1 µM)?
Its viability, T/C is 109% and 111% and 104%.

What about the viability, T/C (compound 3.16 µM) of the same compound?
The viability, T/C was 116% and 110% and 112%.

What about the viability, T/C (compound 10 µM) of the same compound?
The viability, T/C was 33% and 37.7% and 50.1%.

What about the IC50 (curve of compound) of the same compound?
Its IC50 is 7.77 µM and 8.19 µM and > 10 µM.

Which viability, T/C (compound 0.0316 µM) does the source give for `CC1COCCN1c1cc(C2(S(C)(=N)=O)CC2)nc(-c2ccnc3[nH]ccc23)n1` (stereo not drawn) here?
Its viability, T/C is 112% and 105% and 108%.

What about the viability, T/C (compound 0.1 µM) of the same compound?
Its viability, T/C is 105% and 106% and 102%.

And the viability, T/C (compound 0.316 µM)?
The viability, T/C was 108% and 109% and 103%.

What about the viability, T/C (compound 1 µM) of the same compound?
The viability, T/C was 100% and 95.8% and 92%.

And the viability, T/C (compound 3.16 µM)?
Its viability, T/C is 79.7% and 65.6% and 90.4%.

What about the viability, T/C (compound 10 µM) of the same compound?
Its viability, T/C is 32.3% and 23.4% and 33.7%.

What about the IC50 (curve of compound) of the same compound?
The IC50 was 6.52 µM and 4.82 µM and 7.12 µM.

What does the source list for `C#Cc1c(F)ccc2cc(O)cc(-c3ncc4c(N5CC6CCC(C5)N6)nc(OCC56CCCN5CC(F)C6)nc4c3F)c12` (stereo not drawn) + Cc1cccc(N(C)C(=O)C2C(O)CCN2c2nc(C)cc(C(F)(F)F)c2C#N)c1?
IC50 (curve of first compound, second compound 0.0316 µM): 0.0663 µM; IC50 (curve of first compound, second compound 0.1 µM): 0.0711 µM; IC50 (curve of first compound, second compound 0.316 µM): 0.0728 µM; IC50 (curve of first compound, second compound 1 µM): 0.0606 µM; IC50 (curve of first compound, second compound 3.16 µM): 0.0476 µM; IC50 (curve of first compound, second compound 10 µM): < 0.0316 µM; viability, T/C (second compound 0.0316 µM, first compound 0.0316 µM): 60.8%; viability, T/C (second compound 0.0316 µM, first compound 0.1 µM): 44.5%; viability, T/C (second compound 0.0316 µM, first compound 0.316 µM): 32.2%; viability, T/C (second compound 0.0316 µM, first compound 1 µM): 25.6%; viability, T/C (second compound 0.0316 µM, first compound 3.16 µM): 23%; viability, T/C (second compound 0.0316 µM, first compound 10 µM): 19.5%; viability, T/C (second compound 0.1 µM, first compound 0.0316 µM): 65.3%; viability, T/C (second compound 0.1 µM, first compound 0.1 µM): 43.8%; viability, T/C (second compound 0.1 µM, first compound 0.316 µM): 32.6%; viability, T/C (second compound 0.1 µM, first compound 1 µM): 30.1%; viability, T/C (second compound 0.1 µM, first compound 3.16 µM): 26.5%; viability, T/C (second compound 0.1 µM, first compound 10 µM): 26.6%; viability, T/C (second compound 0.316 µM, first compound 0.0316 µM): 66.6%; viability, T/C (second compound 0.316 µM, first compound 0.1 µM): 44.4%; viability, T/C (second compound 0.316 µM, first compound 0.316 µM): 32.8%; viability, T/C (second compound 0.316 µM, first compound 1 µM): 27.9%; viability, T/C (second compound 0.316 µM, first compound 3.16 µM): 23.2%; viability, T/C (second compound 0.316 µM, first compound 10 µM): 28.9%; viability, T/C (second compound 1 µM, first compound 0.0316 µM): 56%; viability, T/C (second compound 1 µM, first compound 0.1 µM): 45.3%; viability, T/C (second compound 1 µM, first compound 0.316 µM): 31.9%; viability, T/C (second compound 1 µM, first compound 1 µM): 25.2%; viability, T/C (second compound 1 µM, first compound 3.16 µM): 26.5%; viability, T/C (second compound 1 µM, first compound 10 µM): 25.3%; viability, T/C (second compound 3.16 µM, first compound 0.0316 µM): 52.9%; viability, T/C (second compound 3.16 µM, first compound 0.1 µM): 44.5%; viability, T/C (second compound 3.16 µM, first compound 0.316 µM): 35.1%; viability, T/C (second compound 3.16 µM, first compound 1 µM): 23.9%; viability, T/C (second compound 3.16 µM, first compound 3.16 µM): 28.2%; viability, T/C (second compound 3.16 µM, first compound 10 µM): 24.4%; viability, T/C (second compound 10 µM, first compound 0.0316 µM): 50%; viability, T/C (second compound 10 µM, first compound 0.1 µM): 38.5%; viability, T/C (second compound 10 µM, first compound 0.316 µM): 36%; viability, T/C (second compound 10 µM, first compound 1 µM): 31.8%; viability, T/C (second compound 10 µM, first compound 3.16 µM): 29.1%; viability, T/C (second compound 10 µM, first compound 10 µM): 23.7%
